Experimental data taken from patent publication US11753408B2, “Compounds and method for blocking transmission of malarial parasite” (The United States of America, as represented by the …, priority 2016, dated 2023).
Like-named read-outs stand apart in the source and are kept apart here.

Legend:
PAMPA permeability = assay type: in vitro ADME
[1] = Microsomal stability (rat); assay type: in vitro ADME; details: rat microsomes
[2] = test system: Stage III-V gametocytes (blood stage P. falciparum parasites); assay: In vitro drug activity on gametocytes (AlamarBlue viability assay); assay type: cell-based, Plasmodium falciparum; details: for EC50: read-out: Gametocyte EC50
Method in brief: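 P. falciparum 3D7 stage III–V gametocytes (also HB3, Dd2), enriched by 50 mM N-acetylglucosamine and Percoll gradient, seeded at 20,000/well with compound for 72 h at 37° C, 5% CO2. AlamarBlue then added for 24 h; viability read as fluorescence (Ex 525, Em 598 nm).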

Solubility at pH 7.4 = assay type: physicochemical
[3] = test system: Asexual parasites of P. falciparum strain 3D7; assay: In vitro drug activity on asexual parasites (SYBR Green assay); assay type: cell-based, Plasmodium falciparum
Method in brief: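 3D7 parasites at 0.5% parasitemia and 2% hematocrit were exposed to drugs (DMSO ≤0.5%) for 72 h under standard culture conditions, in duplicate. After freeze-thaw lysis, SYBR Green I lysis buffer was added for 30 min at room temperature, and fluorescence was read at 490/520 nm.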

[4] = P. falciparum stage III-V gametocytes, 72 h incubation, AlamarBlue
[5] = P. falciparum 3D7 asexual parasites, 72 h, SYBR Green

Compound	PAMPA Permeability (×10^6 cm/s) (PAMPA permeability)	Microsomal Stability (rat) T1/2 [1] [min]	EC50 [2, 4] [nM]	Sol @ pH 7.4 (ug/mL) (Solubility at pH 7.4)	EC50 [3, 5] [nM]	PAMPA Permeability (PAMPA permeability) [×10⁻⁶ cm/s]	EC50 [2] [nM]	Sol @ pH 7.4 (Solubility at pH 7.4) [ug/mL]	EC50 [3] [nM]	Gametocyte EC50 (nM) [2, 4]
NC1(c2ccc(-c3ccc4ncc5ccc(=O)n(-c6ccc7c(c6)CNC7=O)c5c4c3)cc2)CC1 [Compound 373]	<6.3 ×10^6 cm/s	>30	45.7	3.3	350					
CS(=O)(=O)c1ccc(-n2c(=O)ccc3cnc4ccc(-c5ccc(Cl)c(C(N)=O)c5)cc4c32)cc1 [Compound 51]	43.1 ×10^6 cm/s	>30.0	291	4.3	203					
Cc1c(C#N)cccc1-n1c(=O)ccc2cnc3ccc(-c4ccc(N)nc4)cc3c21 [Compound 24]	547.9 ×10^6 cm/s	19	23.4	5.7	5.88					
CN(C)Cc1ccc(-c2ccc3ncc4ccc(=O)n(-c5ccc6c(c5)CCNC6=O)c4c3c2)cc1 [Compound 342]	12.72 ×10^6 cm/s	>30.00	350	31.01	130					
O=C(c1ccc(-n2c(=O)ccc3cnc4ccc(-c5ccc(Cl)cc5)cc4c32)cc1)N1CCOCC1 [Compound 85]		9				794	77.6	<1.0	6.89	
CS(=O)(=O)c1ccc(-n2c(=O)ccc3cnc4ccc(-c5ccc(CN)cc5)cc4c32)cc1 [Compound 47]	<2.9 ×10^6 cm/s	>30.0	377	2.1	66.4					
CS(=O)(=O)c1ccc(-n2c(=O)ccc3cnc4ccc(-c5ccc(C=O)cc5)cc4c32)cc1 [Compound 65]	5.4 ×10^6 cm/s	2.9	461	<1	43.1					
CN1Cc2cc(-n3c(=O)ccc4cnc5ccc(-c6ccc(F)cc6)cc5c43)ccc2C1=O [Compound 360]	635.05 ×10^6 cm/s	19.2	736	0.73	170					
CN(C)C(=O)c1cc(-c2ccc3ncc4ccc(=O)n(-c5ccc(S(C)(=O)=O)cc5)c4c3c2)ccc1Cl [Compound 50]	164.4 ×10^6 cm/s	3	1830	2.7	932					
CS(=O)(=O)c1ccc(-n2c(=O)ccc3cnc4ccc(-c5ccc(Cl)c(C(=O)O)c5)cc4c32)cc1 [Compound 43]	<1.0 ×10^6 cm/s	>30.0		>74.0	43800					Inactive
CN1C(=O)CCc2cc(-n3c(=O)ccc4cnc5ccc(-c6ccc(N)nc6)cc5c43)ccc21 [Compound 392]	133.39 ×10^6 cm/s	>30.00	46.1	33.81	22					
CS(=O)(=O)c1ccc(-n2c(=O)ccc3cnc4ccc(-c5ccc(Cl)c(C(=O)N6CCOCC6)c5)cc4c32)cc1 [Compound 52]	200.8 ×10^6 cm/s	<1.0	35200	57.2	14700					
Nc1ccc(-c2ccc3ncc4ccc(=O)n(-c5ccc6c(c5)CN(C5CC5)C6=O)c4c3c2)cn1 [Compound 390]	25 ×10^6 cm/s	>30.0	116	4.2	75.2					
CN(C)Cc1ccc(-c2ccc3ncc4ccc(=O)n(-c5cccc(C#N)c5)c4c3c2)cc1 [Compound 2]	1040.6 ×10^6 cm/s	>30.0	428	>64.0	291					
Cc1cc(N2CCNCC2)c(C#N)cc1-n1c(=O)ccc2cnc3ccc(-c4ccc(Cl)cc4)cc3c21 [Compound 4]	21 ×10^6 cm/s	9.6	55	<1	14.9					
CN(C)Cc1ccc(-c2ccc3ncc4ccc(=O)n(-c5ccc6c(c5)C(=O)NC6)c4c3c2)cc1 [Compound 349]	2.5 ×10^6 cm/s	>30.0	26800	>68.0	14200					

Compound	PAMPA Permeability (×10^6 cm/s) (PAMPA permeability)	Microsomal Stability (rat) T1/2 [1] [min]	EC50 [2, 4] [nM]	Sol @ pH 7.4 (ug/mL) (Solubility at pH 7.4)	EC50 [3, 5] [nM]	PAMPA Permeability (PAMPA permeability) [×10⁻⁶ cm/s]	EC50 [2] [nM]	Sol @ pH 7.4 (Solubility at pH 7.4) [ug/mL]	EC50 [3] [nM]	Gametocyte EC50 (nM) [2, 4]
N#Cc1cc(-n2c(=O)ccc3cnc4ccc(-c5ccc(N)nc5)cc4c32)ccc1N1CCOCC1 [Compound 23]	58.15 ×10^6 cm/s	3.5	40.4	1.48	22.5					
CN(C)Cc1ccc(-c2ccc3ncc4ccc(=O)n(-c5ccc6c(c5)CCC(=O)N6)c4c3c2)cc1 [Compound 357]	40.53 ×10^6 cm/s	>30.00	2200	>70.00	863					
NC1(c2ccc(-c3ccc4ncc5ccc(=O)n(-c6ccc7c(c6)CNC7=O)c5c4c3)cc2)CCC1 [Compound 368]	2.9 ×10^6 cm/s	>30	2200	6.5	1280					
Cc1ccc(C#N)cc1-n1c(=O)ccc2cnc3ccc(-c4ccc(N)nc4)cc3c21 [Compound 21]	606 ×10^6 cm/s	12.7	17	1.1	13.8					
CCN1Cc2cc(-n3c(=O)ccc4cnc5ccc(-c6ccc(CN(C)C)cc6)cc5c43)ccc2C1=O [Compound 348]	289.4 ×10^6 cm/s	>30.0	2450	>72.0	1460					
O=C1NCc2cc(-n3c(=O)ccc4cnc5ccc(-c6ccc(CN7CCOCC7)cc6)cc5c43)ccc21 [Compound 369]	55 ×10^6 cm/s	26	2940	15.7	1230					
Cc1cc(-c2ccc3ncc4ccc(=O)n(-c5ccc(S(C)(=O)=O)cc5)c4c3c2)ccc1Cl [Compound 48]	<1.0 ×10^6 cm/s	>30.0	561	<1.0	200					
CCN(CC)Cc1ccc(-c2ccc3ncc4ccc(=O)n(-c5cc(C#N)ccc5C)c4c3c2)cc1 [Compound 9]	1492.3 ×10^6 cm/s	10.9	2570	58.6	668					
CCN1Cc2cc(-n3c(=O)ccc4cnc5ccc(-c6ccc(F)cc6)cc5c43)ccc2C1=O [Compound 361]	199.84 ×10^6 cm/s	>30.00	6440	<0.10	1580					
NCc1cccc(-c2ccc3ncc4ccc(=O)n(-c5ccc6c(c5)CNC6=O)c4c3c2)c1 [Compound 370]	<1 ×10^6 cm/s	>30	4120	27.3	296					
CS(=O)(=O)c1ccc(-n2c(=O)ccc3cnc4ccc(-c5ccc(Cl)c(N)c5)cc4c32)cc1 [Compound 28]	33.9 ×10^6 cm/s	>30.0	95.3	<1.0	16.2					
CN(C)Cc1ccc(-c2ccc3ncc4ccc(=O)n(-c5ccc(S(C)(=O)=O)cc5)c4c3c2)cc1 [Compound 30]	677.9 ×10^6 cm/s	>30.0	336	30.4	118					
CS(=O)(=O)c1ccc(-n2c(=O)ccc3cnc4ccc(-c5cccc(CN)c5)cc4c32)cc1 [Compound 64]	<12.3 ×10^6 cm/s	>30	1050	1.4	489					
NS(=O)(=O)c1ccc(-n2c(=O)ccc3cnc4ccc(-c5ccc(Cl)cc5)cc4c32)cc1 [Compound 40]	<1.0 ×10^6 cm/s	>30.0	51.7	<1.0	14.6					
CN(C)Cc1ccc(-c2ccc3ncc4ccc(=O)n(-c5ccc6c(c5)CN(C)C6=O)c4c3c2)cc1 [Compound 347]	317.6 ×10^6 cm/s	>30.0	1720	>70.0	668					
O=C1NCc2cc(-n3c(=O)ccc4cnc5ccc(-c6ccc(F)cc6)cc5c43)ccc21 [Compound 362]	98.56 ×10^6 cm/s	7.4	81.7	0.6	8.86					
